Values after ≈ are worked out from the molar mass of the structure shown.
Key:
Test in all cases: microbe, parasite or virus in culture
Format in all cases: cell-based
SARS-CoV-2 Beta variant = conditions: Severe acute respiratory syndrome coronavirus 2, Vero C1008
SARS-CoV-2 Delta variant = conditions: Severe acute respiratory syndrome coronavirus 2, Vero C1008
[1] = test system: SARS-CoV-2 Wuhan isolate (wild type); conditions: Severe acute respiratory syndrome coronavirus 2, Vero C1008; positive control at 3.77 μg/ml; […]
[2] = positive control at 3.77 μg/ml, […]

Structure (SMILES) | IC50 (SARS-CoV-2 Beta variant; Beta strain, in vitro) | inhibition at 0.5 µg/mL (SARS-CoV-2 Beta variant; Beta, 0.5 μg/ml, Vero E6 cells) | inhibition at 2 µg/mL (SARS-CoV-2 Beta variant; Beta, 2 μg/ml, Vero E6 cells) | inhibition at 5 µg/mL (SARS-CoV-2 Beta variant; Beta, 5 μg/ml, Vero E6 cells) | inhibition at 16 µg/mL (SARS-CoV-2 Beta variant; Beta, 16 μg/ml, Vero E6 cells) | inhibition at 50 µg/mL (SARS-CoV-2 Beta variant; Beta, 50 μg/ml, Vero E6 cells) | IC50 (SARS-CoV-2 Delta variant; Delta strain, in vitro) | inhibition at 0.5 µg/mL (SARS-CoV-2 Delta variant; Delta, 0.5 μg/ml, Vero E6 cells) | inhibition at 2 µg/mL (SARS-CoV-2 Delta variant; Delta, 2 μg/ml, Vero E6 cells) | inhibition at 5 µg/mL (SARS-CoV-2 Delta variant; Delta, 5 μg/ml, Vero E6 cells) | inhibition at 16 µg/mL (SARS-CoV-2 Delta variant; Delta, 16 μg/ml, Vero E6 cells) | inhibition at 50 µg/mL (SARS-CoV-2 Delta variant; Delta, 50 μg/ml, Vero E6 cells) | inhibition at 3.77 µg/mL (SARS-CoV-2 Beta variant; [2]) | inhibition at 3.77 µg/mL (SARS-CoV-2 Delta variant; [2]) | inhibition at 3.77 µg/mL [1]
CC1=C2C[C@@H]3[C@@H](C)C=CC(=O)[C@@]3(C)C[C@@]2(O)OC1=O [HLS, (4aR,5S,8aS,9aR)-9a-hydroxy-3,5,8a-trimethyl-4a,5,9,9a-tetrahydronaphtho[2,3-b]furan-2,8(4H,8aH)-dione] | 8.93 µg/mL (≈ 34 µM) | 25% | 25% | 50% | 75% | 100% | 6.15 µg/mL (≈ 23.4 µM) | 0% | 25% | 50% | 75% | 100% |  |  | 
CCC(CC)COC(=O)[C@H](C)N[P@](=O)(OC[C@H]1O[C@@](C#N)(c2ccc3c(N)ncnn23)[C@H](O)[C@@H]1O)Oc1ccccc1 [Remdesivir, reference compound] |  |  |  |  |  |  |  |  |  |  |  |  | 100% | 100% | 100%
